According to patent US12708640B2, “Synergistic nutritional compositions for treating vestibular associated neurodegenerative diseases” (CELAGENEX RESEARCH (INDIA) PVT. LTD., priority 2021, dated 2026):

Legend:
Assay type in all cases: in vivo, Albino Wistar rat
[1] = system: sodium arsanilate induced vestibular dysfunction (Vertigo disorder) in wistar rats; experiment: Contact righting reflex
Excerpt: (§1) “Evaluation of test substance on sodium arsanilate induced vestibular dysfunction (Vertigo disorder) in wistar rats”.
(§2) Vestibular dysfunction was induced in rats by intratympanic injection of sodium arsanilate an ototoxic compound. Sodium arsanilate is an arsenic derivative and intratympanic injection result was vestibular nerve degeneration in brain stem with concomitant loss of labyrinthine righting and reduced postural support with exaggerated head dorsiflexion.
(§3) All the animals were acclimatized for at least 5 days under controlled environmental condition. Total 42 animals were divided into seven groups consisting of 6 animals per group. Normal control (G1) group receiving vehicle, disease control (G2) group receiving sodium arsanilate injection only, standard group (G3) receiving reference standard (vertin) and treatment groups G4, G5, G6 & G7 were treated with the test substances. All the groups (except normal control group) were induced with sodium arsanilate via intratymphanic injection. All the treatment groups were administered daily for 7 consecutive days.
The rats were placed in a syringe core tube in a supine position, following which the recovery time for position correction to be recorded. Normal rats turned over their body position in a few seconds.

[2] = Rat feed consumption in the sodium arsanilate vestibular dysfunction study; conditions: rats, group value
Excerpt: as §1
(§4) • Test Species: Rat • Strain: Albino Wistar • Sex: Male/Female • Age: 6-8 Weeks • Body Weight: 180-200 g • Source: In house breed • Total No. of Animals: 42 Animals (7 groups of 6 animals each) • Feed: Normal chow diet (Purina lab diet 5L79 Rat and Mouse 18%) (PMI Nutrition International) Environmental Conditions:
as §3
The feed consumption was calculated and reported on a daily basis throughout the study period.

[3] = system: sodium arsanilate induced vestibular dysfunction (Vertigo disorder) in wistar rats; experiment: Open field test
Excerpt: as §1, §2, §3
The open-field was circular, with a diameter of 90 cm, and enclosed by a wall 30 cm high. The floor and wall of the open-field was black and the floor was divided into 25 equal area sections by thin white lines. The floor was covered with a transparent plastic coating. The open-field apparatus was located inside a large wooden frame which surrounded on all sides by black curtains. The field was illuminated by two 60-W fluorescent lights located 100 cm above the floor.
At the start of each session the rats were placed in one of the peripheral sections of the open-field and the animal's behavior was monitored by an observer for 10 consecutive minutes. […] At the end of each session the rat was returned to its home cage and the floor of the open-field was cleaned and sponged over with a weak vinegar solution to remove any residual odors.

[4] = system: sodium arsanilate induced vestibular dysfunction (Vertigo disorder) in wistar rats; experiment: Air righting reflex (air reflecting index)
Excerpt: as §1, §2, §3
A sponge was spread on a flat surface and the animals were placed in a supine position in the air 50 cm away above the sponge, following which the animal was dropped horizontally.
Four-legged smooth landing on the ground was considered as positive (normal animal), whereas the body or other regions landing first was considered vestibular dysfunction animals. The positive landing rate (%) of each rat in each group was recorded.

[5] = Rat body weight in the sodium arsanilate vestibular dysfunction study; conditions: rats, group value
Excerpt: as §1, §4, §3
Individual body weights were recorded at receipt, on the day of randomization, on the first day of treatment before dosing and weekly once thereafter throughout the treatment period. The body weight changes for all the animals were calculated and reported along with the body weight data.

[6] = open field test, wrt. disease control G2

CC(=O)NC(CC(C)C)C(=O)O (racemic) [Group 4, N-Acetyl-DL-leucine enantiomerically enriched (EE) with L-leucine]
Contact righting reflex (time) ([1]; animal 1, recovery time for position correction): 27 s | Contact righting reflex (time) ([1]; animal 2, recovery time for position correction): 26 s | Contact righting reflex (time) ([1]; animal 3, recovery time for position correction): 25 s | Contact righting reflex (time) ([1]; animal 4, recovery time for position correction): 28 s | Contact righting reflex (time) ([1]; animal 5, recovery time for position correction): 27 s | Contact righting reflex (time) ([1]; animal 6, recovery time for position correction): 28 s | Contact righting reflex (time), Average ([1]; group average of 6 animals): 26.83 s | contact righting reflex, improvement (wrt. the Disease Control) ([1]; wrt. the Disease Control): up to 34% | Feed Consumption, 0 day ([2]; 0 day): 16.00 gm | Feed Consumption, 7th day ([2]; 7th day): 16.67 gm | Ambulation Score [the number of open-field sections entered by the rat] ([3]; animal 1): 210 | Defecation [the number of fecal boli deposited in the open-field] ([3]; animal 1): 2 | Grooming [the number of grooming bouts exhibited by the rat] ([3]; animal 1): 3 | Rearing Responses [the number of times the animal raised both forefeet off the floor and extended its body] ([3]; animal 1): 4 | Ambulation Score [the number of open-field sections entered by the rat] ([3]; animal 2): 200 | Defecation [the number of fecal boli deposited in the open-field] ([3]; animal 2): 3 | Grooming [the number of grooming bouts exhibited by the rat] ([3]; animal 2): 4 | Rearing Responses [the number of times the animal raised both forefeet off the floor and extended its body] ([3]; animal 2): 3 | Ambulation Score [the number of open-field sections entered by the rat] ([3]; animal 3): 220 | Defecation [the number of fecal boli deposited in the open-field] ([3]; animal 3): 4 | Grooming [the number of grooming bouts exhibited by the rat] ([3]; animal 3): 3 | Rearing Responses [the number of times the animal raised both forefeet off the floor and extended its body] ([3]; animal 3): 5 | Ambulation Score [the number of open-field sections entered by the rat] ([3]; animal 4): 220 | Defecation [the number of fecal boli deposited in the open-field] ([3]; animal 4): 2 | Grooming [the number of grooming bouts exhibited by the rat] ([3]; animal 4): 3 | Rearing Responses [the number of times the animal raised both forefeet off the floor and extended its body] ([3]; animal 4): 4 | Ambulation Score [the number of open-field sections entered by the rat] ([3]; animal 5): 210 | Defecation [the number of fecal boli deposited in the open-field] ([3]; animal 5): 3 | Grooming [the number of grooming bouts exhibited by the rat] ([3]; animal 5): 4 | Rearing Responses [the number of times the animal raised both forefeet off the floor and extended its body] ([3]; animal 5): 6 | Ambulation Score [the number of open-field sections entered by the rat] ([3]; animal 6): 220 | Defecation [the number of fecal boli deposited in the open-field] ([3]; animal 6): 4 | Grooming [the number of grooming bouts exhibited by the rat] ([3]; animal 6): 2 | Rearing Responses [the number of times the animal raised both forefeet off the floor and extended its body] ([3]; animal 6): 4 | Ambulation Score [the number of open-field sections entered by the rat], Average ([3]; group average of 6 animals): 213.33 | Defecation [the number of fecal boli deposited in the open-field], Average ([3]; group average of 6 animals): 3.00 | Grooming [the number of grooming bouts exhibited by the rat], Average ([3]; group average of 6 animals): 3.17 | Rearing Responses [the number of times the animal raised both forefeet off the floor and extended its body], Average ([3]; group average of 6 animals): 4.33 | % Improvement in Ambulation score wrt. G2 [3, 6]: 15.23% | % Improvement in Defecation wrt. G2 [3, 6]: 30.77% | % Improvement in Grooming wrt. G2 [3, 6]: 59.57% | % Improvement in Rearing Responses wrt. G2 [3, 6]: 40.62% | Air Righting Reflex (% successfully righted within 5 s) ([4]; animal 1): 40% | Air Righting Reflex, Successful out of 5 ([4]; animal 1, end of 7-day treatment): 2 | Air Righting Reflex (% successfully righted within 5 s) ([4]; animal 2): 60% | Air Righting Reflex, Successful out of 5 ([4]; animal 2, end of 7-day treatment): 3 | Air Righting Reflex (% successfully righted within 5 s) ([4]; animal 3): 40% | Air Righting Reflex, Successful out of 5 ([4]; animal 3, end of 7-day treatment): 2 | Air Righting Reflex (% successfully righted within 5 s) ([4]; animal 4): 40% | Air Righting Reflex, Successful out of 5 ([4]; animal 4, end of 7-day treatment): 2 | Air Righting Reflex (% successfully righted within 5 s) ([4]; animal 5): 60% | Air Righting Reflex, Successful out of 5 ([4]; animal 5, end of 7-day treatment): 3 | Air Righting Reflex (% successfully righted within 5 s) ([4]; animal 6): 40% | Air Righting Reflex, Successful out of 5 ([4]; animal 6, end of 7-day treatment): 2 | Air Righting Reflex (% of Rats that successfully righted themselves within 5 s), Average ([4]; group average of 6 animals): 46.67% | Body Weight, End of the treatment ([5]; after 7 days daily treatment): 190.77 gm | Body Weight, Initial ([5]; initial): 189.15 gm
